# Reference: US10947274B1 (priority 2018, dated 2021)
# How the values were obtained:
# [1] = format: physicochemical
# [2] = biological target: human α9α10 nicotinic acetylcholine receptor (nAChR) (human) (UniProt Q9UGM1); test: cell-based or functional assay
# [3] = biological target: α7 nAChR (Rattus norvegicus, UniProt Q05941); settings: cited from earlier work
# Sequence of α7 nAChR (Q05941 23-502 limits assumed): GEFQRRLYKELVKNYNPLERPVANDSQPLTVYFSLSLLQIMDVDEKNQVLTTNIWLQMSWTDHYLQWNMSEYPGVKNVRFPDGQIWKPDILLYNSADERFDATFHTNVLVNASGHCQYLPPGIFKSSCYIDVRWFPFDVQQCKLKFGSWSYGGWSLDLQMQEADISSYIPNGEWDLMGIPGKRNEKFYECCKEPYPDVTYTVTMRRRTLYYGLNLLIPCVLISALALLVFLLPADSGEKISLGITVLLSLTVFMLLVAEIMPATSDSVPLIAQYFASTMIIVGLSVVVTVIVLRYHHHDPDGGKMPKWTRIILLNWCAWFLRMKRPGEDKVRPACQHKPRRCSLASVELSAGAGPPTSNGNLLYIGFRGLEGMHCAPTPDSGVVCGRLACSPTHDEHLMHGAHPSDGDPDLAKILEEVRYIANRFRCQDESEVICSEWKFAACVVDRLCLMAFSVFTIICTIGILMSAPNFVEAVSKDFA
# Sequence of human α9α10 nicotinic acetylcholine receptor (nAChR) (human) (Q9UGM1 23-479, chain 1 of 2): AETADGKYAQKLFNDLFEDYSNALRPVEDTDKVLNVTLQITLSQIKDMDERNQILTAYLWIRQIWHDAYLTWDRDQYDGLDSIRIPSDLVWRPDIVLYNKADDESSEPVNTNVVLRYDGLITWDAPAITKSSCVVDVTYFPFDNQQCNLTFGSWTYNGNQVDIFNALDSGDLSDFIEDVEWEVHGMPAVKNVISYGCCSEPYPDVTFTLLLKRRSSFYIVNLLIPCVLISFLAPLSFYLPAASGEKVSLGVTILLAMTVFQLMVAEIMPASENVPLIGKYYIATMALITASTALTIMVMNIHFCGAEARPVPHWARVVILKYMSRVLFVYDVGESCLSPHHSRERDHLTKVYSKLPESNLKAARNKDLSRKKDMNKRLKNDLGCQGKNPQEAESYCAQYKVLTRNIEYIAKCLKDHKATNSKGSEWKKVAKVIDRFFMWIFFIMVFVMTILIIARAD
# Sequence of human α9α10 nicotinic acetylcholine receptor (nAChR) (human) (Q9GZZ6 25-450, chain 2 of 2, further chain): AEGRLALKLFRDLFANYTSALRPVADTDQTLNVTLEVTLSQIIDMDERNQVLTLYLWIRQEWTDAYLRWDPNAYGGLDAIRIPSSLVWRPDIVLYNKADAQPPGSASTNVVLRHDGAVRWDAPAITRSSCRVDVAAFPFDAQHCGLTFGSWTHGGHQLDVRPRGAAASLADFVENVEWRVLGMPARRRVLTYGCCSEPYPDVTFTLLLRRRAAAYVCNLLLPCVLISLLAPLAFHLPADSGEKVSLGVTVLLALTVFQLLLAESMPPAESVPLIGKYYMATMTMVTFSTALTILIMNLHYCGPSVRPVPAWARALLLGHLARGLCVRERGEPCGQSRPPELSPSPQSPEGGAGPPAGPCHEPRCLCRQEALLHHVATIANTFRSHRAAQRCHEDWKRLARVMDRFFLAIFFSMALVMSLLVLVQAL
substance,measurement,setting,value
GCCTDPRC(Cit)(I-3-Y)QCY [RgIA4],"area under the curve, % of the total",[1]; at 8 h,26.3%
same,share of intact (globular) peptide over time,[1]; pH 7.3,minority component
[C3Pen;14R]RgIA5 (peptide),"IC50 (nM), block of the acetylcholine response, voltage-clamped Xenopus oocytes",[2],0.5 nM
α-conotoxin ImI,IC50,[3],69.3 ± 15.5 nM
